{"source": "paper PMC11968843", "about": "“Sulphostin-inspired N-phosphonopiperidones as selective covalent DPP8 and DPP9 inhibitors” (Nature Communications, 2025)", "key": {"[1]": {"target": "T1, DPP4 (Homo sapiens, UniProt P27487)", "T1 construct": "purchased Proteros Biostructures GmbH, Germany", "T1 sequence (P27487 whole entry)": "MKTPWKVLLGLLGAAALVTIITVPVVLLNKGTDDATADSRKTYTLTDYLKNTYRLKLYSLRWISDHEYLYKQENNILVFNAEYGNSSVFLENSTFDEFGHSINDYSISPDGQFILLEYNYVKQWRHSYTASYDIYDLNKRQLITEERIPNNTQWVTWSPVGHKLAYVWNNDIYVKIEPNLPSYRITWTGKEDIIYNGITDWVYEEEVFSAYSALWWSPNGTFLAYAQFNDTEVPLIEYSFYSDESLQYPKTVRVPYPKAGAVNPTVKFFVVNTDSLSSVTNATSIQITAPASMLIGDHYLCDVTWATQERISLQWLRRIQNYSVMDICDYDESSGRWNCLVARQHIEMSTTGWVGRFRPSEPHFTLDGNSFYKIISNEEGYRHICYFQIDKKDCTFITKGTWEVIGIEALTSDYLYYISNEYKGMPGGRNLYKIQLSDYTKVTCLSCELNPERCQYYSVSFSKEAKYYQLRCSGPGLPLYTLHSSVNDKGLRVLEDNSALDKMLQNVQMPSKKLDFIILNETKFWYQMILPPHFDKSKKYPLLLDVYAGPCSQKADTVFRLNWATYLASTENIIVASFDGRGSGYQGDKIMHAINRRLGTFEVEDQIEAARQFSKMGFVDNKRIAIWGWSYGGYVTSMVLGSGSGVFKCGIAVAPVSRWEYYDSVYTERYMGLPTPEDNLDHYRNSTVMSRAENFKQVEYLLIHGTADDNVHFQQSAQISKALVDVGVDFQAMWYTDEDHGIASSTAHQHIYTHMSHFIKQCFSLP", "test": "biochemical", "format": "biochemical", "settings": "for DPP4 activity [%]: replicates", "outline": "(§1)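 Initial velocity of AMC release from fluorogenic GP-AMC substrate read for up to 60 min at 30 °C in HEPES/KOH pH 7.3 buffer with 1 mM DTT. Enzyme (10 nM) preincubated 45 min at 30 °C with inhibitor (0–100 μM, 1% DMSO). IC50 from four-parameter variable-slope fit of triplicates.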"}, "[2]": {"target": "T2, DPP8 (Homo sapiens, UniProt Q6V1X1)", "T2 construct": "purchased Proteros Biostructures GmbH, Germany", "T2 sequence (Q6V1X1 whole entry)": "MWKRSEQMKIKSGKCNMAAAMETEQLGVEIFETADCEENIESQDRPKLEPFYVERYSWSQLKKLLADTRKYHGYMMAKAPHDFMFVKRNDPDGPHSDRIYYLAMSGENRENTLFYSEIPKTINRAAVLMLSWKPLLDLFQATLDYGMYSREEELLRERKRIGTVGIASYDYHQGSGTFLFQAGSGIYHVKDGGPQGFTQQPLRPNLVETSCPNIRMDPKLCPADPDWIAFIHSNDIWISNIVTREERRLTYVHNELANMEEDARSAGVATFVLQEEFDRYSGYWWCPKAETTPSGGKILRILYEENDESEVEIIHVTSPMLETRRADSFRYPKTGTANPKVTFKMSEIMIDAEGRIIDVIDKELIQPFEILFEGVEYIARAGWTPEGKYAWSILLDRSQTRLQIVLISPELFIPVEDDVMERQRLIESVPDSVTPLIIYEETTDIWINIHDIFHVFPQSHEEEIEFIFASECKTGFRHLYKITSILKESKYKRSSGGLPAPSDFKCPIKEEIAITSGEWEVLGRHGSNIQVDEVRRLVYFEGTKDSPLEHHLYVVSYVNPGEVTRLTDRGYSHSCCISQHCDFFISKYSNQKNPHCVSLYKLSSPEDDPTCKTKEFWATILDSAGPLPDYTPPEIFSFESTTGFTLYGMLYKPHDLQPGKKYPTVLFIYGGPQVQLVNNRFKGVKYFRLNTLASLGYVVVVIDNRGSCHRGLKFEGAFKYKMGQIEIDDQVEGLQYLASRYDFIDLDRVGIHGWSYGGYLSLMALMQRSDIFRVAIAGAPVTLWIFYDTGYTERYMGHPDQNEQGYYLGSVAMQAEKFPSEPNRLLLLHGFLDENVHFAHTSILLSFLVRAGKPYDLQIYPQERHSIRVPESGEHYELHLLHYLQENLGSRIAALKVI", "test": "biochemical", "format": "biochemical", "outline": "as §1"}, "[3]": {"target": "T1, DPP4", "format": "biochemical", "experimental": "To calculate the reaction rate of covalent bond formation between DPP proteins and inhibitor, kinact, KI and kapp was determined as previously described[30],[51]. […] Enzyme activity was measured for a maximum of 120 min at 30 °C, and fluorescence intensities were then plotted against time. Data was fitted to the following equation: Y=(vi/kobs)*(1−exp(−kobs*X)) using Graph-Pad Prism v10.2.3. The obtained pseudo-first-order rate constant was used to determine the maximum enzyme inhibition rate (kinact) and binding affinity (KI) by fitting the plot of kobs against inhibitor concentration to the following equation: Y=kinact/1+(KI/[I]) . The efficiency of covalent bond formation (kapp) was calculated by the ratio of kinact/KI. All measurements were performed in triplicates and error bars represent standard errors of the fit."}, "[4]": {"target": "T2, DPP8", "test": "Time-dependent DPP8 inhibition kinetics (kobs, KI, kinact, kapp)", "format": "biochemical", "outline": "(§2)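 Enzyme (10 nM) received 250 µM GP-AMC together with serially diluted inhibitor, and fluorescence was followed for up to 120 min at 30 °C. Progress curves were fitted for kobs, and kobs versus [I] gave kinact and KI. kapp = kinact/KI; triplicates, errors are standard errors of the fit.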"}, "[5]": {"target": "T3, HEK293 cell lysates (proteome-wide targets of probe 9) (Homo sapiens, UniProt P19338)", "T3 construct": "endogenous in cells; host or cells: HEK293 cell lysate", "T3 sequence (P19338 whole entry)": "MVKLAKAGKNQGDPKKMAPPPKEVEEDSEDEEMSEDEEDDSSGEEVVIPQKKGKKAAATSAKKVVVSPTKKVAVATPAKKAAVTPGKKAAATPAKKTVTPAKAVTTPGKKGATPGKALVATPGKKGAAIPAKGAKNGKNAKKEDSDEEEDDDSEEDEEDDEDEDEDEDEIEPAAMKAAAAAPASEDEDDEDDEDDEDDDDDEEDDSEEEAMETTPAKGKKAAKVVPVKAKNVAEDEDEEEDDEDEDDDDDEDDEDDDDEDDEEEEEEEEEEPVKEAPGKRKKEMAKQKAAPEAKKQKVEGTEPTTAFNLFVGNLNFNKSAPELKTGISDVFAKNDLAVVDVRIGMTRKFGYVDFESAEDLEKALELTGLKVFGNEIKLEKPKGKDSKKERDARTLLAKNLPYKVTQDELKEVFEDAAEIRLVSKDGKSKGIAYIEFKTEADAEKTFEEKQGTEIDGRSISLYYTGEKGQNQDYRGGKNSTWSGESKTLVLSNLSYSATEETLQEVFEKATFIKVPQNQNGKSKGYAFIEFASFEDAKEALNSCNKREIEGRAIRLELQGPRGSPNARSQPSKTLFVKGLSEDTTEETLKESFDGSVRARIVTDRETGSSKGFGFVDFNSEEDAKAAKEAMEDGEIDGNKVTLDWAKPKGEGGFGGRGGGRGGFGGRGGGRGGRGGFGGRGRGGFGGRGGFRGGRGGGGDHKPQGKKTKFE", "test": "Competitive ABPP / direct target identification with alkyne probe 9 in HEK293 cell lysates", "format": "binding, H. sapiens", "settings": "protein NCL"}, "[6]": {"target": "T4, HEK293 cell lysates (proteome-wide targets of probe 9) (Homo sapiens, UniProt P22626)", "T4 construct": "endogenous in cells; host or cells: HEK293 cell lysate", "T4 sequence (P22626 whole entry)": "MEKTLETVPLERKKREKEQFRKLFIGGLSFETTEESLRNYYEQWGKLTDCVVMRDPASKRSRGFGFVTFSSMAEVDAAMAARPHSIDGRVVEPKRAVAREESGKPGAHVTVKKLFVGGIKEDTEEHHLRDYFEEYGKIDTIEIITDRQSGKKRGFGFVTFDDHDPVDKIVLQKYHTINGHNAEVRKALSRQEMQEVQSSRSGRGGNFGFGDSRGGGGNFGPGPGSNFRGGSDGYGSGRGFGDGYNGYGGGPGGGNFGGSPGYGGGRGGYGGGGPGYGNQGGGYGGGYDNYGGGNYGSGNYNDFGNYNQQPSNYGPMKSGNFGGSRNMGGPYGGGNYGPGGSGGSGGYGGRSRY", "test": "Competitive ABPP / direct target identification with alkyne probe 9 in HEK293 cell lysates", "format": "binding, H. sapiens", "settings": "protein HNRNPA2B1;HNRPA2B1"}, "[7]": {"target": "T5, HEK293 cell lysates (proteome-wide targets of probe 9) (Homo sapiens, UniProt P49368)", "T5 construct": "endogenous in cells; host or cells: HEK293 cell lysate", "T5 sequence (P49368 whole entry)": "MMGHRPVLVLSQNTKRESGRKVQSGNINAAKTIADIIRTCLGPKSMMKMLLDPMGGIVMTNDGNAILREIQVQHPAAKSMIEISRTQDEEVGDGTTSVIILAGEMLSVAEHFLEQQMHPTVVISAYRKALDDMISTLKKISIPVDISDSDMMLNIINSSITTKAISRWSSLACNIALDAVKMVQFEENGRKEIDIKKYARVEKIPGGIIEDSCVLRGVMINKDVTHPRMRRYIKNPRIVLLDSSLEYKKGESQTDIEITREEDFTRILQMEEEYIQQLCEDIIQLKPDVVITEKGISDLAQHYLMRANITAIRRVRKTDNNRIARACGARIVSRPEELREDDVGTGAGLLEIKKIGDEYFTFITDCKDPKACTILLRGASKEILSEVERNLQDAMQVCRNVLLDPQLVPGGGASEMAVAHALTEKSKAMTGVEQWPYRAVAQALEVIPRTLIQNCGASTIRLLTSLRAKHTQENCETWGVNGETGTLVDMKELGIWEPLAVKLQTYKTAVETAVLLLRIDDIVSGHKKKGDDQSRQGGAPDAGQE", "test": "Competitive ABPP / direct target identification with alkyne probe 9 in HEK293 cell lysates", "format": "binding, H. sapiens", "settings": "protein CCT3"}, "[8]": {"target": "T6, HEK293 cell lysates (proteome-wide targets of probe 9) (Homo sapiens, UniProt P62805)", "T6 construct": "endogenous in cells; host or cells: HEK293 cell lysate", "test": "Competitive ABPP / direct target identification with alkyne probe 9 in HEK293 cell lysates", "format": "binding, H. sapiens", "settings": "protein HIST1H4A"}, "[9]": {"target": "T7, DPP9 (Homo sapiens, UniProt Q86TI2)", "T7 sequence (Q86TI2 whole entry)": "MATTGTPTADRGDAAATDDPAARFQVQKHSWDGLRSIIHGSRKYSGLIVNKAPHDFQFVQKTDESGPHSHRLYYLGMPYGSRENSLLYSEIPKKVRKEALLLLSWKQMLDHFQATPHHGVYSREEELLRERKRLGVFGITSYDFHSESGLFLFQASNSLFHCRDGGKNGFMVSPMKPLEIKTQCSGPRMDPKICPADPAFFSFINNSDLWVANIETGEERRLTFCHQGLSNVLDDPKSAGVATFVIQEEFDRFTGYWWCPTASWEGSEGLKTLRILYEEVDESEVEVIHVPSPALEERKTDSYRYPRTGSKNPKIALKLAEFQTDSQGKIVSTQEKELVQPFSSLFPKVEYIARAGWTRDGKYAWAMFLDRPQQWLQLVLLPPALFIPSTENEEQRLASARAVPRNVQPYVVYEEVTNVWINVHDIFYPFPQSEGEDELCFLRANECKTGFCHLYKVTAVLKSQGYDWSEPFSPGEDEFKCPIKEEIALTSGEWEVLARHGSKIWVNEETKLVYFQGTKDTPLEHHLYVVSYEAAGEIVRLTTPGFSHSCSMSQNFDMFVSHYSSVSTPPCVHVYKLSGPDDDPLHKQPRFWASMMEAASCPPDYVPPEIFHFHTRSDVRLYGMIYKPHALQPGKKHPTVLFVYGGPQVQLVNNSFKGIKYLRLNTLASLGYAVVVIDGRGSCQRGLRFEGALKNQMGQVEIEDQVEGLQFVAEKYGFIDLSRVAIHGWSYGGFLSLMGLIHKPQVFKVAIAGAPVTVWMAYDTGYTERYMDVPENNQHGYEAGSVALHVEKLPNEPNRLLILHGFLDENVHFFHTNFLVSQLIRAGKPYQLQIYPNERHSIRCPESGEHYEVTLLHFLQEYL", "test": "biochemical", "format": "biochemical", "set-up": "purchased Proteros Biostructures GmbH, Germany", "settings": "for DPP9 activity [%]: replicates", "outline": "as §1"}, "[10]": {"target": "T7, DPP9", "test": "Time-dependent DPP9 inhibition kinetics (kobs, KI, kinact, kapp)", "format": "biochemical", "set-up": "purchased Proteros Biostructures GmbH, Germany", "outline": "as §2"}, "[11]": {"settings": "irreversible inhibition, fit of kobs vs inhibitor concentration"}}, "note": "Several values for one entry are separate records, joined by “and”; a condition that tells them apart may be missing. Equal values may be shown once. Read-outs that look alike come from different tables or passages of the source.", "data": [{"smiles": "CCCCCc1ccc(SCCP(=O)(OCC)N2CCC[C@H](N)C2=O)cc1.O=C(O)C(F)(F)F", "note": "(stereo partly shown) [Compound 16]", "values": [{"measurement": "IC50", "setting": "[1]; GP-AMC 250 µM, 10 nM enzyme, 45 min pre-incubation at 30 °C, read-out: IC50 DPP4", "value": 16200, "unit": "nM"}, {"measurement": "DPP4 activity [%]", "setting": "[1]; c 15.625 nM", "value": "93.2714% and 107.175% and 106.746%"}, {"measurement": "DPP4 activity [%]", "setting": "[1]; c 31.25 nM", "value": "98.0992% and 97.1086% and 101.856%"}, {"measurement": "DPP4 activity [%]", "setting": "[1]; c 62.5 nM", "value": "102.891% and 92.9769% and 100.41%"}, {"measurement": "DPP4 activity [%]", "setting": "[1]; c 250 nM", "value": "99.4378% and 98.9828% and 107.906%"}, {"measurement": "DPP4 activity [%]", "setting": "[1]; c 500 nM", "value": "104.087% and 100.437% and 100.482%"}, {"measurement": "DPP4 activity [%]", "setting": "[1]; c 1000 nM", "value": "94.3422% and 97.3674% and 95.7968%"}, {"measurement": "DPP4 activity [%]", "setting": "[1]; c 1562.5 nM", "value": "95.896% and 97.1752% and 96.7627%"}, {"measurement": "DPP4 activity [%]", "setting": "[1]; c 3125 nM", "value": "92.5869% and 89.2118% and 84.6321%"}, {"measurement": "DPP4 activity [%]", "setting": "[1]; c 6250 nM", "value": "85.4573% and 71.7259% and 79.6149%"}, {"measurement": "DPP4 activity [%]", "setting": "[1]; c 25000 nM", "value": "32.8097% and 29.6905% and 29.938%"}, {"measurement": "DPP4 activity [%]", "setting": "[1]; c 50000 nM", "value": "6.082% and 4.679% and 4.407%"}, {"measurement": "DPP4 activity [%]", "setting": "[1]; c 100000 nM", "value": "0.3548% and 1.386% and 0.7592%"}, {"measurement": "IC50", "setting": "[2]; GP-AMC 250 µM, 10 nM enzyme, 45 min pre-incubation at 30 °C, read-out: IC50 DPP8", "value": "14 ± 1", "unit": "nM"}, {"measurement": "DPP8 activity [%]", "setting": "[2]; c 15.625 nM, replicates", "value": "42.4788% and 41.4194% and 46.9279%"}, {"measurement": "DPP8 activity [%]", "setting": "[2]; c 25 nM, replicates", "value": "28.7129% and 21.6298% and 23.9147%"}, {"measurement": "DPP8 activity [%]", "setting": "[2]; c 31.25 nM, replicates", "value": "25% and 29.6611% and 26.8008%"}, {"measurement": "DPP8 activity [%]", "setting": "[2]; c 50 nM, replicates", "value": "11.5004% and 14.9276% and 11.5003%"}, {"measurement": "DPP8 activity [%]", "setting": "[2]; c 62.5 nM, replicates", "value": "11.5466% and 15.9958% and 12.9237%"}, {"measurement": "DPP8 activity [%]", "setting": "[2]; c 100 nM, replicates", "value": "5.331% and 3.808% and 3.884%"}, {"measurement": "DPP8 activity [%]", "setting": "[2]; c 250 nM, replicates", "value": "4.449% (2×) and 5.085%"}, {"measurement": "DPP8 activity [%]", "setting": "[2]; c 500 nM, replicates", "value": "3.39% and 4.449% and 3.1779%"}, {"measurement": "DPP8 activity [%]", "setting": "[2]; c 1000 nM, replicates", "value": "3.496% and 1.907% and 2.6483%"}, {"measurement": "DPP8 activity [%]", "setting": "[2]; c = 1.5625 nM inhibitor, individual replicates", "value": "85.6817% and 91.6222% and 85.0724%"}, {"measurement": "DPP8 activity [%]", "setting": "[2]; c = 3.125 nM inhibitor, individual replicates", "value": "102.513% and 82.8637% and 92.1555%"}, {"measurement": "DPP8 activity [%]", "setting": "[2]; c = 6.25 nM inhibitor, individual replicates", "value": "73.0388% and 69.9924% and 75.3236%"}, {"measurement": "DPP8 vs. DPP9 selectivity", "setting": "[2]; from IC50 values", "value": "~ 21 fold"}, {"measurement": "selectivity of DPP8 inhibition over DPP4", "setting": "[2]; from IC50 values", "value": "~ 1154 fold"}, {"measurement": "kobs DPP4", "setting": "[3]; c 250 µM", "value": 0.003317, "unit": "s⁻¹"}, {"measurement": "kobs DPP4", "setting": "[3]; c 1000 µM", "value": 0.006797, "unit": "s⁻¹"}, {"measurement": "kinact DPP4", "setting": "[3]; [11]", "value": 0.01027, "unit": "s⁻¹"}, {"measurement": "kapp DPP4", "setting": "[3]; ratio kinact/KI", "value": 20, "unit": "M⁻¹ s⁻¹"}, {"measurement": "KI (inactivation)", "setting": "[3]; source data, read-out: KI [M] best fit DPP4", "value": 0.000512, "unit": "M"}, {"measurement": "kobs DPP8", "setting": "[4]; c 0.003125 µM", "value": "7.927e-05", "unit": "s⁻¹"}, {"measurement": "kobs DPP8", "setting": "[4]; c 0.025 µM", "value": 0.0001486, "unit": "s⁻¹"}, {"measurement": "kinact DPP8", "setting": "[4]; [11]", "value": 0.00018, "unit": "s⁻¹"}, {"measurement": "KI (inactivation)", "setting": "[4]; irreversible inhibition, fit of kobs vs inhibitor concentration, read-out: KI DPP8", "value": "4e-09 ± 2e-09", "unit": "M"}, {"measurement": "KI (inactivation)", "setting": "[4]; source data, read-out: KI [M] best fit DPP8", "value": "3.53e-09", "unit": "M"}, {"measurement": "Log2-fold change (16/9)", "setting": "[5]", "value": -1.045}, {"measurement": "Log2-fold change (16/9)", "setting": "[6]", "value": -0.7288}, {"measurement": "Log2-fold change (16/9)", "setting": "[7]", "value": -1.0355}, {"measurement": "Log2-fold change (16/9)", "setting": "[8]", "value": 0.1177}, {"measurement": "IC50", "setting": "[9]; GP-AMC 250 µM, 10 nM enzyme, 45 min pre-incubation at 30 °C, read-out: IC50 DPP9", "value": "298 ± 21", "unit": "nM"}, {"measurement": "DPP9 activity [%]", "setting": "[9]; c 15.625 nM", "value": "90.8881% and 85.3617% and 82.8729%"}, {"measurement": "DPP9 activity [%]", "setting": "[9]; c 31.25 nM", "value": "91.5419% and 83.379% and 89.0951%"}, {"measurement": "DPP9 activity [%]", "setting": "[9]; c 62.5 nM", "value": "100.148% and 96.4776% and 87.1335%"}, {"measurement": "DPP9 activity [%]", "setting": "[9]; c 156.25 nM", "value": "75.5857% and 64.6658% and 62.3826%"}, {"measurement": "DPP9 activity [%]", "setting": "[9]; c 250 nM", "value": "60.7045% and 50.2004% and 47.0576%"}, {"measurement": "DPP9 activity [%]", "setting": "[9]; c 312.5 nM", "value": "47.5512% and 45.1489% and 49.4375%"}, {"measurement": "DPP9 activity [%]", "setting": "[9]; c 500 nM", "value": "25.3111% and 25.3533% and 24.7205%"}, {"measurement": "DPP9 activity [%]", "setting": "[9]; c 625 nM", "value": "28.2131% and 30.5361% and 23.7856%"}, {"measurement": "DPP9 activity [%]", "setting": "[9]; c 1000 nM", "value": "10.0823% and 10.3775% and 12.2759%"}, {"measurement": "DPP9 activity [%]", "setting": "[9]; c 2500 nM", "value": "5.122% and 5.281% and 6.135%"}, {"measurement": "DPP9 activity [%]", "setting": "[9]; c 5000 nM", "value": "3.4348% and 3.693% and 4.11%"}, {"measurement": "DPP9 activity [%]", "setting": "[9]; c 10000 nM", "value": "2.0053% and 1.966% and 1.707%"}, {"measurement": "kobs DPP9", "setting": "[10]; c 0.0625 µM", "value": 0.0001274, "unit": "s⁻¹"}, {"measurement": "kobs DPP9", "setting": "[10]; c 0.25 µM", "value": 0.0002545, "unit": "s⁻¹"}, {"measurement": "kobs DPP9", "setting": "[10]; c 1 µM", "value": 0.0004155, "unit": "s⁻¹"}, {"measurement": "kinact DPP9", "setting": "[10]; [11]", "value": "0.0005 ± 0.00007", "unit": "s⁻¹"}, {"measurement": "KI (inactivation)", "setting": "[10]; irreversible inhibition, fit of kobs vs inhibitor concentration, read-out: KI DPP9", "value": "2.16e-07 ± 9e-08", "unit": "M"}, {"measurement": "KI (inactivation)", "setting": "[10]; source data, read-out: KI [M] best fit DPP9", "value": "2.16e-07", "unit": "M"}]}]}
